Molecular target: recombinant human SAE enzyme (Homo sapiens (Human), UniProt Q9UBT2)
Test: SAE HTRF enzyme assay
Assay type: biochemical
Conditions: for Percent Inhibition: SAE inhibition at compound concentration 0.111 μM; for IC50: SAE inhibition, class symbols, legend in nM
How it was run: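 Human SAE (0.11 nM) with 0.5 μM ATP, 0.125 μM Sumo-Flag and 0.01 μM Ubc9-GST in HEPES pH 7.5, 5 mM MgCl2, 250 μM GSH; 105 min at 24 °C. Stopped with EDTA; HTRF read after 2 h with Eu-anti-Flag and APC-anti-GST. Percent inhibition or IC50 reported.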

recombinant human SAE enzyme, sequence (Q9UBT2 whole entry): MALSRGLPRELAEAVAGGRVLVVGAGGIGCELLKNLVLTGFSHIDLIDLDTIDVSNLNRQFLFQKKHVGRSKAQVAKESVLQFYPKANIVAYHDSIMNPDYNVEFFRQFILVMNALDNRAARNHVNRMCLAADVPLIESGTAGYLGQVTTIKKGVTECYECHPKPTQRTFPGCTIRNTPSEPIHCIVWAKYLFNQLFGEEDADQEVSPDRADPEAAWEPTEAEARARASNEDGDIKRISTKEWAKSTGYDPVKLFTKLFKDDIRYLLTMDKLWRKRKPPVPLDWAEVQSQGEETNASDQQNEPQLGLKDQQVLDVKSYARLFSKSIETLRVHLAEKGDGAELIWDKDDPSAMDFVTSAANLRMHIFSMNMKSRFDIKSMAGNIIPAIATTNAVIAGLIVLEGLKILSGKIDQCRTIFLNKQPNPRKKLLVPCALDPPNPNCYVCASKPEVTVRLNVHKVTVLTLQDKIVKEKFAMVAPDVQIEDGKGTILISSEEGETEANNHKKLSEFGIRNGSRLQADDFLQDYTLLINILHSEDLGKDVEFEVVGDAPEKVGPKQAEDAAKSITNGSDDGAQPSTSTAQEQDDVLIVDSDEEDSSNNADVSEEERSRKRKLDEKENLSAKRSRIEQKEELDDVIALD
recombinant human SAE enzyme, sequence (Q9UBE0 whole entry partner): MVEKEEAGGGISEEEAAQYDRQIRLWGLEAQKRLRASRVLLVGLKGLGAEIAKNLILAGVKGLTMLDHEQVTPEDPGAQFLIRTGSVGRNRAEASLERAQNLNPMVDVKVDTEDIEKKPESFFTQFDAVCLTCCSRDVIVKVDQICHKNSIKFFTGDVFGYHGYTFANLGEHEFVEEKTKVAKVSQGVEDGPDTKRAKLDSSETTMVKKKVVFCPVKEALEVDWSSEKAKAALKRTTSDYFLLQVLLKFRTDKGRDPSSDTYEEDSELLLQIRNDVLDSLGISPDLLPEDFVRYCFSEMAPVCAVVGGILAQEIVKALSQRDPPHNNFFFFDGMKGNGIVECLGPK

Question: `C[C@@]1(c2csc(C(=O)c3cncnc3N[C@@H]3C[C@H](COS(N)(=O)=O)[C@@H](O)C3)c2)OCCc2ccc(Cl)cc21` (mixture of isomers) [I-317, [(1R,2S,4R)-4-{[5-({4-[(1R)-7-chloro-1-methyl-3,4-dihydro-1H-isochromen-1-yl]-2-thienyl}carbonyl)pyrimidin-4-yl]amino}-2-hydroxycyclopentyl]methyl sulfamate and [(1R,2S,4R)-4-{[5-({4-[(1S)-7-chloro-1-methyl-3,4-dihydro-1H-isochromen-1-yl]-2-thienyl}carbonyl)pyrimidin-4-yl]amino}-2-hydroxycyclopentyl]methyl sulfamate] was tested. Which “Percent Inhibition” value did it give?
Answer: 97%

Question: And the IC50?
Answer: < 10 nM

Question: Which “Percent Inhibition” value does the source give for `C[C@@]1(c2csc(C(=O)c3cncnc3N[C@@H]3C[C@H](COS(N)(=O)=O)[C@@H](O)C3)c2)NCCc2ccccc21.C[C@]1(c2csc(C(=O)c3cncnc3N[C@@H]3C[C@H](COS(N)(=O)=O)[C@@H](O)C3)c2)NCCc2ccccc21` (mixture of isomers) [I-318, [(1R,2S,4R)-2-hydroxy-4-{[5-({4-[(1R)-1-methyl-1,2,3,4-tetrahydroisoquinolin-1-yl]-2-thienyl}carbonyl)pyrimidin-4-yl]amino}cyclopentyl]methyl sulfamate and [(1R,2S,4R)-2-hydroxy-4-{[5-({4-[(1S)-1-methyl-1,2,3,4-tetrahydroisoquinolin-1-yl]-2-thienyl}carbonyl)pyrimidin-4-yl]amino}cyclopentyl]methyl sulfamate] here?
Answer: 95%

Question: And the IC50?
Answer: < 10 nM

Question: Which “Percent Inhibition” value does the source give for `NS(=O)(=O)OC[C@H]1C[C@@H](Nc2ncncc2C(=O)c2cc([C@@H]3NCCCc4ccccc43)c(Cl)s2)C[C@@H]1O` (mixture of isomers) [I-319, [(1R,2S,4R)-4-{[5-({5-chloro-4-[(1R)-2,3,4,5-tetrahydro-1H-2-benzazepin-1-yl]-2-thienyl}carbonyl)pyrimidin-4-yl]amino}-2-hydroxycyclopentyl]methyl sulfamate and [(1R,2S,4R)-4-{[5-({5-chloro-4-[(1S)-2,3,4,5-tetrahydro-1H-2-benzazepin-1-yl]-2-thienyl}carbonyl)pyrimidin-4-yl]amino}-2-hydroxycyclopentyl]methyl sulfamate] here?
Answer: 94%

Question: And the IC50?
Answer: < 10 nM

Question: What does the source list for `NS(=O)(=O)OC[C@H]1C[C@@H](Nc2ncncc2C(=O)c2cc([C@@H]3SCCc4ccc(Cl)cc43)cs2)C[C@@H]1O.NS(=O)(=O)OC[C@H]1C[C@@H](Nc2ncncc2C(=O)c2cc([C@H]3SCCc4ccc(Cl)cc43)cs2)C[C@@H]1O` (mixture of isomers) [I-320, [(1R,2S,4R)-4-{[5-({4-[(1R)-7-chloro-3,4-dihydro-1H-isothiochromen-1-yl]-2-thienyl}carbonyl)pyrimidin-4-yl]amino}-2-hydroxycyclopentyl]methyl sulfamate and [(1R,2S,4R)-4-{[5-({4-[(1S)-7-chloro-3,4-dihydro-1H-isothiochromen-1-yl]-2-thienyl}carbonyl)pyrimidin-4-yl]amino}-2-hydroxycyclopentyl]methyl sulfamate]?
Answer: Percent Inhibition: 92%; IC50: 10 to 100 nM

Question: With `C[C@@]1(c2csc(C(=O)c3cncnc3N[C@@H]3C[C@H](COS(N)(=O)=O)[C@@H](O)C3)c2)NCCc2ccc(Cl)cc21` (mixture of isomers) [I-321, [(1R,2S,4R)-4-{[5-({4-[(1R)-7-chloro-1-methyl-1,2,3,4-tetrahydroisoquinolin-1-yl]-2-thienyl}carbonyl)pyrimidin-4-yl]amino}-2-hydroxycyclopentyl]methyl sulfamate and [(1R,2S,4R)-4-{[5-({4-[(1S)-7-chloro-1-methyl-1,2,3,4-tetrahydroisoquinolin-1-yl]-2-thienyl}carbonyl)pyrimidin-4-yl]amino}-2-hydroxycyclopentyl]methyl sulfamate] as the compound, how does the “Percent Inhibition” value read?
Answer: 94%

Question: What about the IC50 of the same compound?
Answer: < 10 nM

Question: How did the “Percent Inhibition” value turn out when `CN1Cc2cc(Cl)ccc2[C@@H]1c1csc(C(=O)c2cncnc2N[C@@H]2C[C@H](COS(N)(=O)=O)[C@@H](O)C2)c1` (mixture of isomers) [I-322, [(1R,2S,4R)-4-{[5-({4-[(1R)-5-chloro-2-methyl-2,3-dihydro-1H-isoindol-1-yl]-2-thienyl}carbonyl)pyrimidin-4-yl]amino}-2-hydroxycyclopentyl]methyl sulfamate and [(1R,2S,4R)-4-{[5-({4-[(1S)-5-chloro-2-methyl-2,3-dihydro-1H-isoindol-1-yl]-2-thienyl}carbonyl)pyrimidin-4-yl]amino}-2-hydroxycyclopentyl]methyl sulfamate] was run?
Answer: 92%

Question: What about the IC50 of the same compound?
Answer: 10 to 100 nM

Question: With `NS(=O)(=O)OC[C@H]1C[C@@H](Nc2ncncc2C(=O)c2cc([C@@H]3OCCc4cnc(Cl)cc43)c(Cl)s2)C[C@@H]1O` (mixture of isomers) [I-323, [(1R,2S,4R)-4-{[5-({5-chloro-4-[(1R)-7-chloro-3,4-dihydro-1H-pyrano[4,3-c]pyridin-1-yl]-2-thienyl}carbonyl)pyrimidin-4-yl]amino}-2-hydroxycyclopentyl]methyl sulfamate and [(1R,2S,4R)-4-{[5-({5-chloro-4-[(1S)-7-chloro-3,4-dihydro-1H-pyrano[4,3-c]pyridin-1-yl]-2-thienyl}carbonyl)pyrimidin-4-yl]amino}-2-hydroxycyclopentyl]methyl sulfamate] as the compound, how does the “Percent Inhibition” value read?
Answer: 90%

Question: And the IC50?
Answer: 10 to 100 nM

Question: Which results are given for `N#Cc1sc(C(=O)c2cncnc2N[C@@H]2C[C@H](COS(N)(=O)=O)[C@@H](O)C2)cc1[C@@H]1OCCc2ccccc21` (mixture of isomers) [I-324, [(1R,2S,4R)-4-{[5-({5-cyano-4-[(1R)-3,4-dihydro-1H-isochromen-1-yl]-2-thienyl}carbonyl)pyrimidin-4-yl]amino}-2-hydroxycyclopentyl]methyl sulfamate and [(1R,2S,4R)-4-{[5-({5-cyano-4-[(1S)-3,4-dihydro-1H-isochromen-1-yl]-2-thienyl}carbonyl)pyrimidin-4-yl]amino}-2-hydroxycyclopentyl]methyl sulfamate]?
Answer: Percent Inhibition: 91%; IC50: 10 to 100 nM

Question: How did the “Percent Inhibition” value turn out when `NS(=O)(=O)OC[C@H]1C[C@@H](Nc2ncncc2C(=O)c2ccc([C@@H]3OCCc4c(Cl)cccc43)s2)C[C@@H]1O` (mixture of isomers) [I-325, [(1R,2S,4R)-4-{[5-({5-[(1R)-5-chloro-3,4-dihydro-1H-isochromen-1-yl]-2-thienyl}carbonyl)pyrimidin-4-yl]amino}-2-hydroxycyclopentyl]methyl sulfamate and [(1R,2S,4R)-4-{[5-({5-[(1S)-5-chloro-3,4-dihydro-1H-isochromen-1-yl]-2-thienyl}carbonyl)pyrimidin-4-yl]amino}-2-hydroxycyclopentyl]methyl sulfamate] was run?
Answer: 60%

Question: And the IC50?
Answer: 10 to 100 nM

Question: Which “Percent Inhibition” value does the source give for `NS(=O)(=O)OC[C@H]1C[C@@H](Nc2ncncc2C(=O)c2cc([C@@H]3OC(=O)c4ccc(Cl)cc43)c(Cl)s2)C[C@@H]1O` (mixture of isomers) [I-327, [(1R,2S,4R)-4-{[5-({5-chloro-4-[(1R)-6-chloro-3-oxo-1,3-dihydro-2-benzofuran-1-yl]-2-thienyl}carbonyl)pyrimidin-4-yl]amino}-2-hydroxycyclopentyl]methyl sulfamate and [(1R,2S,4R)-4-{[5-({5-chloro-4-[(1S)-6-chloro-3-oxo-1,3-dihydro-2-benzofuran-1-yl]-2-thienyl}carbonyl)pyrimidin-4-yl]amino}-2-hydroxycyclopentyl]methyl sulfamate] here?
Answer: 51%

Question: And the IC50?
Answer: 100 to 1000 nM

Question: With `Cc1sc(C(=O)c2cncnc2N[C@@H]2C[C@H](COS(N)(=O)=O)[C@@H](O)C2)cc1[C@@H]1OCCc2ccc(CN(C)C)cc21` (mixture of isomers) [I-329, [(1R,2S,4R)-4-({5-[(4-{(1R)-7-[(dimethylamino)methyl]-3,4-dihydro-1H-isochromen-1-yl}-5-methyl-2-thienyl)carbonyl]pyrimidin-4-yl}amino)-2-hydroxycyclopentyl]methyl sulfamate and [(1R,2S,4R)-4-({5-[(4-{(1S)-7-[(dimethylamino)methyl]-3,4-dihydro-1H-isochromen-1-yl}-5-methyl-2-thienyl)carbonyl]pyrimidin-4-yl}amino)-2-hydroxycyclopentyl]methyl sulfamate] as the compound, how does the “Percent Inhibition” value read?
Answer: 36%

Question: And the IC50?
Answer: 100 to 1000 nM

Question: How did the “Percent Inhibition” value turn out when `Cc1cc2n(n1)CCO[C@H]2c1csc(C(=O)c2cncnc2N[C@@H]2C[C@H](COS(N)(=O)=O)[C@@H](O)C2)c1` (mixture of isomers) [I-332, [(1R,2S,4R)-2-hydroxy-4-{[5-({4-[(4S)-2-methyl-6,7-dihydro-4H-pyrazolo[5,1-c][1,4]oxazin-4-yl]-2-thienyl}carbonyl)pyrimidin-4-yl]amino}cyclopentyl]methyl sulfamate and [(1R,2S,4R)-2-hydroxy-4-{[5-({4-[(4R)-2-methyl-6,7-dihydro-4H-pyrazolo[5,1-c][1,4]oxazin-4-yl]-2-thienyl}carbonyl)pyrimidin-4-yl]amino}cyclopentyl]methyl sulfamate] was run?
Answer: 25%

Question: What about the IC50 of the same compound?
Answer: 100 to 1000 nM

Question: With `Cc1cnn2c1[C@H](c1csc(C(=O)c3cncnc3N[C@@H]3C[C@H](COS(N)(=O)=O)[C@@H](O)C3)c1)OCC2` (mixture of isomers) [I-333, [(1R,2S,4R)-2-hydroxy-4-{[5-({4-[(4S)-3-methyl-6,7-dihydro-4H-pyrazolo[5,1-c][1,4]oxazin-4-yl]-2-thienyl}carbonyl)pyrimidin-4-yl]amino}cyclopentyl]methyl sulfamate and [(1R,2S,4R)-2-hydroxy-4-{[5-({4-[(4R)-3-methyl-6,7-dihydro-4H-pyrazolo[5,1-c][1,4]oxazin-4-yl]-2-thienyl}carbonyl)pyrimidin-4-yl]amino}cyclopentyl]methyl sulfamate] as the compound, how does the “Percent Inhibition” value read?
Answer: 15%

Question: And the IC50?
Answer: 100 to 1000 nM

Source: patent US10780090B2, “Heteroaryl compounds useful as inhibitors of SUMO activating enzyme” (Millennium Pharmaceuticals, Inc., priority 2014, dated 2020)
